Assay results taken from the supplement of paper PMC10307832.

Key:
Test in all cases: relative viability (nuclei count vs DMSO), 5 days (fraction); higher = more cells survive
RERF-LC-KJ = tested on: RERF-LC-KJ
Method in brief: (§1)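 Lung cancer cell lines were pin-tool dosed in 1536-well plates on the day after seeding, with either a lone drug or a fixed anchor-drug dose plus five library-drug doses (not always all listed) in √10 steps. Nuclei were counted on 4× images after 5 days. Relative viability is the ratio of treated-well to vehicle-well nuclei counts, with each value a median of duplicate plates.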

NCI-H1651 = tested on: NCI-H1651
Method in brief: as §1

CAL-12T = tested on: CAL-12T
Method in brief: as §1

EPLC-272H = tested on: EPLC-272H
Method in brief: as §1

ChaGo-K-1 = tested on: ChaGo-K-1
Method in brief: as §1

HCC-78 = tested on: HCC-78
Method in brief: as §1

NCI-H1734 = tested on: NCI-H1734
Method in brief: as §1

NCI-H460 = tested on: NCI-H460
Method in brief: as §1

NCI-H1944 = tested on: NCI-H1944
Method in brief: as §1

NCI-H3122 = tested on: NCI-H3122
Method in brief: as §1

NCI-H2087 = tested on: NCI-H2087
Method in brief: as §1

UMC-11 = tested on: UMC-11
Method in brief: as §1

NCI-H2228 = tested on: NCI-H2228
Method in brief: as §1

NCI-H1793 = tested on: NCI-H1793
Method in brief: as §1

ABC-1 = tested on: ABC-1
Method in brief: as §1

NCI-H1395 = tested on: NCI-H1395
Method in brief: as §1

NCI-H2170 = tested on: NCI-H2170
Method in brief: as §1

LU99A = tested on: LU99A
Method in brief: as §1

HCC-366 = tested on: HCC-366
Method in brief: as §1

LC-2-ad = tested on: LC-2-ad
Method in brief: as §1

NCI-H2405 = tested on: NCI-H2405
Method in brief: as §1

PC-3 [JPC-3] = tested on: PC-3 [JPC-3]
Method in brief: as §1

LOU-NH91 = tested on: LOU-NH91
Method in brief: as §1

NCI-H1755 = tested on: NCI-H1755
Method in brief: as §1

Work on `COc1cc(N2CCC(C(N)=O)CC2)ccc1Nc1nc(N)c(Cl)c(Nc2ccccc2S(=O)(=O)C(C)C)n1` [HG-5-88-01] + COc1cc2c(Oc3ccc(NC(=O)C4(C(=O)Nc5ccc(F)cc5)CC4)cc3F)ccnc2cc1OCCCN1CCOCC1 [Foretinib] (partner 0.25 µM) yielded a relative viability (RERF-LC-KJ; first compound 0.04 µM) of 0.869, a relative viability (RERF-LC-KJ; first compound 0.1265 µM) of 0.849 and a relative viability (RERF-LC-KJ; first compound 0.4 µM) of 0.839. It also gave a relative viability (RERF-LC-KJ; first compound 1.265 µM) of 0.836, a relative viability (RERF-LC-KJ; first compound 4 µM) of 0.846 and a relative viability (NCI-H1651; first compound 0.04 µM) of 0.793. The relative viability (NCI-H1651; first compound 0.1265 µM) was 0.922, the relative viability (NCI-H1651; first compound 0.4 µM) was 0.998 and the relative viability (NCI-H1651; first compound 1.265 µM) was 0.762. For the same molecule, the relative viability (NCI-H1651; first compound 4 µM) was 1.02, the relative viability (CAL-12T; first compound 0.04 µM) was 1.06 and the relative viability (CAL-12T; first compound 0.1265 µM) was 1.19. For the same molecule, the relative viability (CAL-12T; first compound 0.4 µM) was 1.05, the relative viability (CAL-12T; first compound 1.265 µM) was 0.963 and the relative viability (CAL-12T; first compound 4 µM) was 0.945. For the same molecule, the relative viability (EPLC-272H; first compound 0.04 µM) was 0.761, the relative viability (EPLC-272H; first compound 0.1265 µM) was 0.735 and the relative viability (EPLC-272H; first compound 0.4 µM) was 0.593. It also gave a relative viability (EPLC-272H; first compound 1.265 µM) of 0.472, a relative viability (EPLC-272H; first compound 4 µM) of 0.0478 and a relative viability (ChaGo-K-1; first compound 0.04 µM) of 0.761. For the same molecule, the relative viability (ChaGo-K-1; first compound 0.1265 µM) was 1.03, the relative viability (ChaGo-K-1; first compound 0.4 µM) was 0.804 and the relative viability (ChaGo-K-1; first compound 1.265 µM) was 0.942. For the same molecule, the relative viability (ChaGo-K-1; first compound 4 µM) was 0.909, the relative viability (HCC-78; first compound 0.04 µM) was 0.589 and the relative viability (HCC-78; first compound 0.1265 µM) was 0.533. For the same molecule, the relative viability (HCC-78; first compound 0.4 µM) was 0.583, the relative viability (HCC-78; first compound 1.265 µM) was 0.377 and the relative viability (HCC-78; first compound 4 µM) was 0.464. For the same molecule, the relative viability (NCI-H1734; first compound 0.04 µM) was 1.05, the relative viability (NCI-H1734; first compound 0.1265 µM) was 0.8 and the relative viability (NCI-H1734; first compound 0.4 µM) was 0.793. For the same molecule, the relative viability (NCI-H1734; first compound 1.265 µM) was 0.576, the relative viability (NCI-H1734; first compound 4 µM) was 0.644 and the relative viability (NCI-H460; first compound 0.04 µM) was 1.03. The relative viability (NCI-H460; first compound 0.1265 µM) was 1.01, the relative viability (NCI-H460; first compound 0.4 µM) was 0.929 and the relative viability (NCI-H460; first compound 1.265 µM) was 0.959. The relative viability (NCI-H460; first compound 4 µM) was 0.926, the relative viability (NCI-H1944; first compound 0.04 µM) was 0.874 and the relative viability (NCI-H1944; first compound 0.1265 µM) was 0.884. The relative viability (NCI-H1944; first compound 0.4 µM) was 0.917, the relative viability (NCI-H1944; first compound 1.265 µM) was 0.883 and the relative viability (NCI-H1944; first compound 4 µM) was 0.886. The relative viability (NCI-H3122; first compound 0.04 µM) was 0.891, the relative viability (NCI-H3122; first compound 0.1265 µM) was 0.684 and the relative viability (NCI-H3122; first compound 0.4 µM) was 0.205. It also gave a relative viability (NCI-H3122; first compound 1.265 µM) of 0.169, a relative viability (NCI-H3122; first compound 4 µM) of 0.15 and a relative viability (NCI-H2087; first compound 0.04 µM) of 1.13. It also gave a relative viability (NCI-H2087; first compound 0.1265 µM) of 1.24, a relative viability (NCI-H2087; first compound 0.4 µM) of 1.06 and a relative viability (NCI-H2087; first compound 1.265 µM) of 1.14. It also gave a relative viability (NCI-H2087; first compound 4 µM) of 0.864, a relative viability (UMC-11; first compound 0.04 µM) of 1.09 and a relative viability (UMC-11; first compound 0.1265 µM) of 1.07. For the same molecule, the relative viability (UMC-11; first compound 1.265 µM) was 0.923, the relative viability (UMC-11; first compound 4 µM) was 0.371 and the relative viability (NCI-H2228; first compound 0.04 µM) was 0.593. The relative viability (NCI-H2228; first compound 0.1265 µM) was 0.327, the relative viability (NCI-H2228; first compound 0.4 µM) was 0.353 and the relative viability (NCI-H2228; first compound 1.265 µM) was 0.219. It also gave a relative viability (NCI-H2228; first compound 4 µM) of 0.27, a relative viability (NCI-H1793; first compound 0.1265 µM) of 0.787 and a relative viability (NCI-H1793; first compound 0.4 µM) of 0.615. For the same molecule, the relative viability (NCI-H1793; first compound 4 µM) was 0.423, the relative viability (ABC-1; first compound 0.04 µM) was 0.931 and the relative viability (ABC-1; first compound 0.1265 µM) was 1.16. The relative viability (ABC-1; first compound 0.4 µM) was 0.73, the relative viability (ABC-1; first compound 1.265 µM) was 0.719 and the relative viability (ABC-1; first compound 4 µM) was 0.616. The relative viability (NCI-H1395; first compound 0.04 µM) was 0.988, the relative viability (NCI-H1395; first compound 0.1265 µM) was 1.06 and the relative viability (NCI-H1395; first compound 0.4 µM) was 1.04. For the same molecule, the relative viability (NCI-H1395; first compound 1.265 µM) was 0.859, the relative viability (NCI-H1395; first compound 4 µM) was 0.999 and the relative viability (NCI-H2170; first compound 0.04 µM) was 1.01. It also gave a relative viability (NCI-H2170; first compound 0.1265 µM) of 0.973, a relative viability (NCI-H2170; first compound 0.4 µM) of 0.967 and a relative viability (NCI-H2170; first compound 1.265 µM) of 0.947. It also gave a relative viability (NCI-H2170; first compound 4 µM) of 1.12, a relative viability (LU99A; first compound 0.04 µM) of 0.774 and a relative viability (LU99A; first compound 0.1265 µM) of 0.751. It also gave a relative viability (LU99A; first compound 0.4 µM) of 0.781, a relative viability (LU99A; first compound 1.265 µM) of 0.83 and a relative viability (LU99A; first compound 4 µM) of 0.801. It also gave a relative viability (HCC-366; first compound 0.04 µM) of 0.955, a relative viability (HCC-366; first compound 0.1265 µM) of 0.915 and a relative viability (HCC-366; first compound 0.4 µM) of 0.909. For the same molecule, the relative viability (HCC-366; first compound 1.265 µM) was 0.856, the relative viability (HCC-366; first compound 4 µM) was 0.45 and the relative viability (LC-2-ad; first compound 0.04 µM) was 0.987. It also gave a relative viability (LC-2-ad; first compound 0.1265 µM) of 0.906, a relative viability (LC-2-ad; first compound 0.4 µM) of 0.956 and a relative viability (LC-2-ad; first compound 1.265 µM) of 0.54. The relative viability (LC-2-ad; first compound 4 µM) was 0.739, the relative viability (NCI-H2405; first compound 0.04 µM) was 1.08 and the relative viability (NCI-H2405; first compound 0.1265 µM) was 1.03. For the same molecule, the relative viability (NCI-H2405; first compound 0.4 µM) was 0.974, the relative viability (NCI-H2405; first compound 1.265 µM) was 0.571 and the relative viability (NCI-H2405; first compound 4 µM) was 0.895. The relative viability (PC-3 [JPC-3]; first compound 0.04 µM) was 1.07, the relative viability (PC-3 [JPC-3]; first compound 0.1265 µM) was 1.04 and the relative viability (PC-3 [JPC-3]; first compound 0.4 µM) was 1.03. For the same molecule, the relative viability (PC-3 [JPC-3]; first compound 1.265 µM) was 0.99, the relative viability (PC-3 [JPC-3]; first compound 4 µM) was 0.724 and the relative viability (LOU-NH91; first compound 0.04 µM) was 0.905. For the same molecule, the relative viability (LOU-NH91; first compound 0.1265 µM) was 0.902, the relative viability (LOU-NH91; first compound 0.4 µM) was 0.872 and the relative viability (LOU-NH91; first compound 1.265 µM) was 0.455. For the same molecule, the relative viability (LOU-NH91; first compound 4 µM) was 0.672, the relative viability (NCI-H1755; first compound 0.04 µM) was 0.876 and the relative viability (NCI-H1755; first compound 0.1265 µM) was 0.895. It also gave a relative viability (NCI-H1755; first compound 0.4 µM) of 0.863, a relative viability (NCI-H1755; first compound 1.265 µM) of 0.858 and a relative viability (NCI-H1755; first compound 4 µM) of 0.873.
